# Test results from patent publication US20030078251A1, “Benzoxazepinones and their use as squalene synthase inhibitors” (priority 2000, published 2003).
# Tests used:
# [1] = target: T1, squalene synthase (Homo sapiens, UniProt P37268); experiment: Squalene synthase inhibiting activity (Test Example 1); format: biochemical; settings: enzyme solution from human hepatic cancer cell HepG2; 5 μM [1-3H] farnesyl pyrophosphate, 37° C., 45 minutes; read-out: Inhibiting activity (IC50, 10^−9M)
# T1 construct: endogenous in cells; host or cells: HepG2 (human hepatic cancer cells); sediment of the 105000 x g centrifugation (microsomal fraction)
# T1 sequence (P37268 1-417): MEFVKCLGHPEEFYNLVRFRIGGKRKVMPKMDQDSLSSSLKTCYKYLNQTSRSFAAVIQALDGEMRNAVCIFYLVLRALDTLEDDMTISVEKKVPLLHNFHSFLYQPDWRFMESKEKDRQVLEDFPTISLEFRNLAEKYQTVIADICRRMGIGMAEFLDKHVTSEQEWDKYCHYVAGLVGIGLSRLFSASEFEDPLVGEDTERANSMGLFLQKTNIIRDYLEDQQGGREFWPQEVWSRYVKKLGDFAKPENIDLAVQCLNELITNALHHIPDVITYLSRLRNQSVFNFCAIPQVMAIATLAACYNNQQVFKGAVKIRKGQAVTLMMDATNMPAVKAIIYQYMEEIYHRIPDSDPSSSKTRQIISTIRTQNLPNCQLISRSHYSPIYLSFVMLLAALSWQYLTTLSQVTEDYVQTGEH
# Method: Squalene Synthase Inhibiting Activity
# The squalene synthase inhibiting activity was measured using an enzyme solution obtained according to a preparing method described below as follows:
# That is, an enzyme solution (protein 0.8 μg) prepared according to the following preparing method was added to a solution containing 5 μM [1-^3H] farnesyl pyrophosphate (specific activity […]), 1 mM NADPH (reduced type nicotinamide adenine dinucleotide phosphate), 5 mM MgCl2, 6 mM glutathione, 100 mM potassium phosphate buffer (pH 7.4) and a test drug (added as an aqueous solution or DMSO solution)(total amount 50 μl), which was reacted at 37° C. for 45 minutes. 150 μl of a mixed solution of chloroform and methanol (1:2) was added to stop the reaction, and 50 μl of chloroform and 50 μl of a 3N sodium hydroxide solution were added. 50 μl of the chloroform layer (lower layer) containing the reaction product, a main component of which is squalene, and 3 ml of toluene series liquid scintillator were mixed, and the radioactivity thereof was measured by a liquid scintillation counter.
# The squalene synthase inhibiting activity was shown by the concentration at which 50% of the radioactivity […] into the chloroform layer (IC50, molar concentration (M)).
# Preparation of Human Enzyme Solution
# Human hepatic cancer cell HepG2 (about 1×10^9 cells) was grown in Dulbecco's modified Eagle medium (37° C., in the presence of 5%CO2) containing 10% bovine fetal serum, the resulting cells were suspended in 10 ml of ice-cooled buffer [100 mM potassium phosphate buffer (pH 7.4), 30 mM nicotinamide, 2.5 mM MgCl2], and ruptured by the ultrasonication (30 seconds, 2 times). The resulting sonicate was centrifuged at 10000× g for 20 minutes (4° C.). The resulting supernatant was centrifuged at 105000× g for 90 minutes (4° C.), then the sediment was suspended in an ice-cooled 100 mM potassium phosphate buffer (pH 7.4), and centrifuged again at 105000× g for 90 minutes (4° C.). This was suspended in an ice-cooled 100 mM potassium phosphate buffer (pH 7.4) (protein concentration about 4 mg/ml), which was used as an enzyme solution.
Structure (SMILES),IC50 [1],melting point
"CCCS(=O)(=O)NC(=O)C[C@H]1O[C@H](c2cccc(OC)c2OC)c2cc(Cl)ccc2N(CC(C)(C)CO)C1=O [Example 2, (3R,5S)-N-propanesulfonyl-7-chloro-5-(2,3-dimethoxyphenyl)-1-(3-hydroxy-2,2-dimethylpropyl)-2-oxo-1,2,3,5-tetrahydro-4,1-benzoxazepine-3-acetamide]",54 nM,135 to 137 °C
"COc1cccc([C@H]2O[C@H](CC(=O)N[C@H](C)C(=O)O)C(=O)N(CC(C)(C)C)c3ccc(Cl)cc32)c1OC [Example 18, (2R)-2-[[(3R,5S)-7-chloro-5-(2,3-dimethoxyphenyl)-1-neopentyl-2-oxo-1,2,3,5-tetrahydro-4,1-benzoxazepin-3-yl]acetyl]aminopropionic Acid]",10 nM,184 to 186 °C
"COc1cccc([C@H]2O[C@H](CC(=O)NC[C@H]3CC[C@H](C(=O)O)CC3)C(=O)N(CC(C)(C)COC(C)=O)c3ccc(Cl)cc32)c1OC [Example 24, trans-4-[[(3R,5S)-1-(3-acetoxy-2,2-dimethylpropyl)-7-chloro-5-(2,3-dimethoxyphenyl)-2-oxo-1,2,3,5-tetrahydro-4,1-benzoxazepin-3-yl]acetyl]aminomethyl-1-cyclohexanecarboxylic acid]",170 nM,
"COc1cccc([C@H]2O[C@H](CC(=O)NCCc3occc3C(=O)O)C(=O)N(CC(C)(C)CO)c3ccc(Cl)cc32)c1OC [Example 26, 2-[2-[[[(3R,5S)-7-chloro-5-(2,3-dimethoxyphenyl)-1-(2,2-dimethyl-3-hydroxypropyl)-2-oxo-1,2,3,5-tetrahydro-4,1-benzoxazepin-3-yl]acetyl]amino]ethyl]furan-3-carboxylic acid]",25 nM,126 to 129 °C
"COc1cccc([C@H]2O[C@H](CC(=O)Nc3cccc(CCC(=O)O)c3)C(=O)N(CC(C)(C)CO)c3ccc(Cl)cc32)c1OC [Example 35, 3-[3-[[(3R,5S)-7-chloro-5-(2,3-dimethoxyphenyl)-1-(3-hydroxy-2,2-dimethylpropyl)-2-oxo-1,2,3,5-tetrahydro-4,1-benzoxazepin-3-yl]acetyl]aminophenyl]propionic Acid]",120 nM,141 to 144 °C
"COc1cccc([C@H]2O[C@H](CC(=O)NCc3cccc(CCC(=O)O)c3)C(=O)N(CC(C)(C)CO)c3ccc(Cl)cc32)c1OC [Example 64, 3-[3-[[[(3R,5S)-7-chloro-5-(2,3-dimethoxyphenyl)-1-(3-hydroxy-2,2-dimethylpropyl)-2-oxo-1,2,3,5-tetrahydro-4,1-benzoxazepin-3-yl]acetyl]aminomethyl]phenyl]propionic Acid]",37 nM,

# The remaining molecules from weak to strong by IC50 [1], led by results:
IC50 [1],melting point,Structure (SMILES)
99 nM,,"COc1cccc([C@H]2O[C@H](CC(=O)NC[C@H]3CC[C@H](C(=O)O)CC3)C(=O)N(CC(C)(C)CO)c3ccc(Cl)cc32)c1OC [Example 23, trans-4-[[(3R,5S)-7-chloro-5-(2,3-dimethoxyphenyl)-1-(3-hydroxy-2,2-dimethylpropyl)-2-oxo-1,2,3,5-tetrahydro-4,1-benzoxazepin-3-yl]acetyl]aminomethyl-1-cyclohexanecarboxylic acid]"
94 nM,,"COc1ccc(CCC(=O)O)cc1NC(=O)C[C@H]1O[C@H](c2cccc(OC)c2OC)c2cc(Cl)ccc2N(CC(C)(C)CO)C1=O [Example 37, 3-[3-[[(3R,5S)-7-chloro-5-(2,3-dimethoxyphenyl)-1-(3-hydroxy-2,2-dimethylpropyl)-2-oxo-1,2,3,5-tetrahydro-4,1-benzoxazepin-3-yl]acetyl]amino-4-methoxyphenyl]propionic Acid]"
9.1 nM,125 to 128 °C,"COc1cccc([C@H]2O[C@H](CC(=O)NCc3ccoc3C(=O)O)C(=O)N(CC(C)(C)CO)c3ccc(Cl)cc32)c1OC [Example 30, 3-[[[[(3R,5S)-7-chloro-5-(2,3-dimethoxyphenyl)-1-(2,2-dimethyl-3-hydroxypropyl)-2-oxo-1,2,3,5-tetrahydro-4,1-benzoxazepin-3-yl]acetyl]amino]methyl]furan-2-carboxylic acid]"
